Assay results reported in PubChem BioAssay AID2060899 (Molecular Pharmacology Branch, DTP, NCI, 2025).

System: 565726-208-R1-J5-PDC complex spheroids, growth inhibition
Assay: Anticancer human tumor 565726-208-R1-J5-PDC patient-derived pancreatic adenocarcinoma cell line growth inhibition [RAS]
Details: for IC50: curve of first compound; for viability, T/C: stronger effect = lower value
Summary of the method: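 Tumour cells grown as complex spheroids with HUVEC endothelial cells and mesenchymal stem cells, treated with RAS pathway inhibitor combinations. Each agent spans half-log steps from near clinical Cmax, or 10 microM where Cmax is unknown.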

[1] = second compound 0.000949 µM, first compound 0.00316 µM
[2] = second compound 0.000949 µM, first compound 0.01 µM
[3] = second compound 0.000949 µM, first compound 0.0316 µM
[4] = second compound 0.000949 µM, first compound 0.1 µM
[5] = second compound 0.000949 µM, first compound 0.316 µM
[6] = second compound 0.000949 µM, first compound 1 µM
[7] = second compound 0.003 µM, first compound 0.00316 µM
[8] = second compound 0.003 µM, first compound 0.01 µM
[9] = second compound 0.003 µM, first compound 0.0316 µM
[10] = second compound 0.003 µM, first compound 0.1 µM
[11] = second compound 0.003 µM, first compound 0.316 µM
[12] = second compound 0.003 µM, first compound 1 µM
[13] = second compound 0.00949 µM, first compound 0.00316 µM
[14] = second compound 0.00949 µM, first compound 0.01 µM
[15] = second compound 0.00949 µM, first compound 0.0316 µM
[16] = second compound 0.00949 µM, first compound 0.1 µM
[17] = second compound 0.00949 µM, first compound 0.316 µM
[18] = second compound 0.00949 µM, first compound 1 µM
[19] = second compound 0.03 µM, first compound 0.00316 µM
[20] = second compound 0.03 µM, first compound 0.01 µM
[21] = second compound 0.03 µM, first compound 0.0316 µM
[22] = second compound 0.03 µM, first compound 0.1 µM
[23] = second compound 0.03 µM, first compound 0.316 µM
[24] = second compound 0.03 µM, first compound 1 µM
[25] = second compound 0.0949 µM, first compound 0.00316 µM
[26] = second compound 0.0949 µM, first compound 0.01 µM
[27] = second compound 0.0949 µM, first compound 0.0316 µM
[28] = second compound 0.0949 µM, first compound 0.1 µM
[29] = second compound 0.0949 µM, first compound 0.316 µM
[30] = second compound 0.0949 µM, first compound 1 µM
[31] = second compound 0.3 µM, first compound 0.00316 µM
[32] = second compound 0.3 µM, first compound 0.01 µM
[33] = second compound 0.3 µM, first compound 0.0316 µM
[34] = second compound 0.3 µM, first compound 0.1 µM
[35] = second compound 0.3 µM, first compound 0.316 µM
[36] = second compound 0.3 µM, first compound 1 µM
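Also: spheroids exposed to compounds for seven days before readout.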
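For viability, T/C in this document: 100% = DMSO vehicle control viability.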

C=CC(=O)N1CCN(c2nc(OCC3CCCN3C)nc3c(F)c(-c4nc(N)cc(C)c4C(F)(F)F)c(Cl)cc23)C(C)C1 (stereo unspecified) + CCn1c(-c2cc(N3CCN(C)CC3)cnc2C(C)OC)c2c3cc(ccc31)-c1csc(n1)CC(NC(=O)C1CC1C)C(=O)N1CCCC(N1)C(=O)OCC(C)(C)C2
IC50 (second compound 0.000949 µM): > 1000 nM | IC50 (second compound 0.003 µM): 6.29 nM | IC50 (second compound 0.00949 µM): < 3.16 nM | IC50 (second compound 0.03 µM): < 3.16 nM | IC50 (second compound 0.0949 µM): < 3.16 nM | IC50 (second compound 0.3 µM): < 3.16 nM | viability, T/C [1]: 63.5% | viability, T/C [2]: 59.2% | viability, T/C [3]: 61.2% | viability, T/C [4]: 63.1% | viability, T/C [5]: 62.5% | viability, T/C [6]: 57.9% | viability, T/C [7]: 50.9% | viability, T/C [8]: 43.8% | viability, T/C [9]: 53.3% | viability, T/C [10]: 51.4% | viability, T/C [11]: 50.5% | viability, T/C [12]: 43.5% | viability, T/C [13]: 40.5% | viability, T/C [14]: 39.7% | viability, T/C [15]: 34% | viability, T/C [16]: 41.8% | viability, T/C [17]: 39.9% | viability, T/C [18]: 34.1% | viability, T/C [19]: 29% | viability, T/C [20]: 32.3% | viability, T/C [21]: 29.9% | viability, T/C [22]: 31.7% | viability, T/C [23]: 34.5% | viability, T/C [24]: 29.4% | viability, T/C [25]: 23.1% | viability, T/C [26]: 27.1% | viability, T/C [27]: 25.5% | viability, T/C [28]: 27.5% | viability, T/C [29]: 29.2% | viability, T/C [30]: 24.3% | viability, T/C [31]: 22.6% | viability, T/C [32]: 22.1% | viability, T/C [33]: 23.2% | viability, T/C [34]: 22.1% | viability, T/C [35]: 25.6% | viability, T/C [36]: 22.6%

O=C(c1ccc(F)c(F)c1Nc1ccc(I)cc1F)N1CC(O)([C@@H]2CCCCN2)C1 + CCn1c(-c2cccnc2C(C)OC)c2c3cc(ccc31)N1CCOC(CC(NC(=O)C(C(C)C)N(C)C(=O)C3(F)CCN(C(=O)C#CC(C)(C)N(C)C)CC3)C(=O)N3CCCC(N3)C(=O)OCC(C)(C)C2)C1
IC50 (second compound 0.000949 µM): 161 nM | IC50 (second compound 0.003 µM): 130 nM | IC50 (second compound 0.00949 µM): 160 nM | IC50 (second compound 0.03 µM): 182 nM | IC50 (second compound 0.0949 µM): 192 nM | IC50 (second compound 0.3 µM): 95.7 nM | viability, T/C [1]: 95.3% | viability, T/C [2]: 83.2% | viability, T/C [3]: 76.8% | viability, T/C [4]: 55.4% | viability, T/C [5]: 40% | viability, T/C [6]: 17.7% | viability, T/C [7]: 96.4% | viability, T/C [8]: 80.4% | viability, T/C [9]: 71.8% | viability, T/C [10]: 53.2% | viability, T/C [11]: 36.8% | viability, T/C [12]: 19% | viability, T/C [13]: 93.7% | viability, T/C [14]: 87.3% | viability, T/C [15]: 67.7% | viability, T/C [16]: 57.1% | viability, T/C [17]: 43.2% | viability, T/C [18]: 19.9% | viability, T/C [19]: 82.7% | viability, T/C [20]: 82.3% | viability, T/C [21]: 77.9% | viability, T/C [22]: 59.5% | viability, T/C [23]: 40.6% | viability, T/C [24]: 19.4% | viability, T/C [25]: 82.8% | viability, T/C [26]: 78.8% | viability, T/C [27]: 72.9% | viability, T/C [28]: 57.4% | viability, T/C [29]: 43.8% | viability, T/C [30]: 19.8% | viability, T/C [31]: 82.6% | viability, T/C [32]: 71.2% | viability, T/C [33]: 67.5% | viability, T/C [34]: 45.9% | viability, T/C [35]: 34.4% | viability, T/C [36]: 13.6%

Nc1ccn(C2OC(CO)C(O)C2(F)F)c(=O)n1 (stereo unspecified) + C#Cc1c(F)ccc2cc(O)cc(-c3ncc4c(N5CC6CCC(C5)N6)nc(OCC56CCCN5CC(F)C6)nc4c3F)c12
IC50 (second compound 0.0316 µM): 92.8 nM | IC50 (second compound 0.1 µM): 73.8 nM | IC50 (second compound 0.316 µM): 273 nM | IC50 (second compound 1 µM): 63.3 nM | IC50 (second compound 3.16 µM): 37.5 nM | IC50 (second compound 10 µM): 30.3 nM | viability, T/C (second compound 0.0316 µM, first compound 0.00316 µM): 101% | viability, T/C (second compound 0.0316 µM, first compound 0.01 µM): 123% | viability, T/C (second compound 0.0316 µM, first compound 0.0316 µM): 80.8% | viability, T/C (second compound 0.0316 µM, first compound 0.1 µM): 53.5% | viability, T/C (second compound 0.0316 µM, first compound 0.316 µM): 46.7% | viability, T/C (second compound 0.0316 µM, first compound 1 µM): 43.4% | viability, T/C (second compound 0.1 µM, first compound 0.00316 µM): 112% | viability, T/C (second compound 0.1 µM, first compound 0.01 µM): 130% | viability, T/C (second compound 0.1 µM, first compound 0.0316 µM): 64% | viability, T/C (second compound 0.1 µM, first compound 0.1 µM): 54.6% | viability, T/C (second compound 0.1 µM, first compound 0.316 µM): 42.8% | viability, T/C (second compound 0.1 µM, first compound 1 µM): 37.5% | viability, T/C (second compound 0.316 µM, first compound 0.00316 µM): 122% | viability, T/C (second compound 0.316 µM, first compound 0.01 µM): 133% | viability, T/C (second compound 0.316 µM, first compound 0.0316 µM): 54.9% | viability, T/C (second compound 0.316 µM, first compound 0.1 µM): 61.1% | viability, T/C (second compound 0.316 µM, first compound 0.316 µM): 46.1% | viability, T/C (second compound 0.316 µM, first compound 1 µM): 41.1% | viability, T/C (second compound 1 µM, first compound 0.00316 µM): 116% | viability, T/C (second compound 1 µM, first compound 0.01 µM): 110% | viability, T/C (second compound 1 µM, first compound 0.0316 µM): 58.2% | viability, T/C (second compound 1 µM, first compound 0.1 µM): 46% | viability, T/C (second compound 1 µM, first compound 0.316 µM): 47.8% | viability, T/C (second compound 1 µM, first compound 1 µM): 39% | viability, T/C (second compound 3.16 µM, first compound 0.00316 µM): 117% | viability, T/C (second compound 3.16 µM, first compound 0.01 µM): 99.2% | viability, T/C (second compound 3.16 µM, first compound 0.0316 µM): 51.1% | viability, T/C (second compound 3.16 µM, first compound 0.1 µM): 43.5% | viability, T/C (second compound 3.16 µM, first compound 0.316 µM): 41% | viability, T/C (second compound 3.16 µM, first compound 1 µM): 45.7% | viability, T/C (second compound 10 µM, first compound 0.00316 µM): 82% | viability, T/C (second compound 10 µM, first compound 0.01 µM): 85.8% | viability, T/C (second compound 10 µM, first compound 0.0316 µM): 48.6% | viability, T/C (second compound 10 µM, first compound 0.1 µM): 47% | viability, T/C (second compound 10 µM, first compound 0.316 µM): 48.8% | viability, T/C (second compound 10 µM, first compound 1 µM): 44.9%
